# “Also recorded” adds a separate entry of the source. No end group written: not given here.
# Legend:
# [1] = test system: HLA-B*0702 transgenic mice; test: CTL induction in vivo in HLA-B*0702 transgenic mice (immunogenicity, cytotoxic assay on peptide-loaded RMA-B7 targets); parameters: key: + for immunogenicity or native peptide cross recognition means that the peptide induced a specific response in at least one HLA-B*0702 transgenic mouse, able to recognized the corresponding native peptide; conditions: Table V
# Protocol: (§1) CTL Induction in vivo in HLA-B*0702 Transgenic Mice. Mice were injected subcutaneously with 100 μg of peptide emulsified in Incomplete Freund's Adjuvant (IFA) in the presence of 150 μg of the I-A^b restricted HBVcore128 T helper epitope ([…], SEQ ID NO: 10). After 11 days, 5×10^7 spleen cells were stimulated in vitro with peptide (10 μM). On day 6 of culture, the bulk responder populations were tested for specific cytotoxicity.
# (§2) Cytotoxic assay. Targets were labelled with 100 μCi of Cr^51 for 60 min, plated in 96-well V-bottomed plates (3×10^3 cell/well in 100 μL of RPMI 1640 medium) and, when necessary, pulsed with peptides (1 μM) at 37° C. for 2 hours. Effectors were then added in the wells and incubated at 37° C. for 4 hours. Percentage of specific lysis was determined as: % Lysis=(Experimental Release−Spontaneous Release)/(Maximal Release−Spontaneous Release)×100.
# (§3) HLA-B7 transgenic mice were vaccinated with the selected peptides, and eleven days later, their spleen cells were in vitro stimulated with the peptide.
# [2] = test system: HLA-B*0702 transgenic mice; test: as above; parameters: key to Corresponding native peptide cross-reconnaissance: + for immunogenicity or native peptide cross recognition means that the peptide induced a specific response in at least one HLA-B*0702 transgenic mouse, able to recognized the corresponding native peptide; conditions: for Corresponding native peptide cross-reconnaissance: CTL induced in HLA-B*0702 transgenic mice; for Immunogenicity: specific CTL immune response (in words): HLA-B*0702 transgenic mice
# Protocol: as §1, §2, §3
# [3] = test system: HLA-B*0702 transgenic mice; test: as above; parameters: key: +: means that a specific immunoresponse was generated at least one HLA-B*0702 transgenic mice; conditions: Table IV
# Protocol: as §1, §2, §3
# HLA-B*0702 = target: T1, HLA-B*0702 (Homo sapiens, UniProt P01889); test: Measurement of peptide relative affinity to HLA-B*0702 (T2-B7 cells, ME-1 mAb staining); format: binding; conditions: for RA: class symbols, Table IV
# T1 construct: expressed in transfected cells; host or cells: human T2 cells transfected with HLA-B*0702 (T2-B7)
# Protocol: The affinity of a peptide for HLA-B*0702 can be determined by methods known in the art, for instance by the assay described by Rohrlich et al., 2003. Results are expressed as relative affinity (RA) when compared to a reference peptide. […] Peptides with RA greater than 10 are therefore considered to be cryptic peptides (or epitopes).
# Measurement of Peptide Relative Affinity to HLA-B*0702. The protocol used has been described previously (Rohrlich et al., 2003). Briefly, T2-B7 cells were incubated at 37° C. for 16 hours with peptides concentrations ranging from 100 μM to 0.1 μM, and then stained with ME-1 monoclonal antibody (mAb) to quantify the surface expression of HLA-B*0702. For each peptide concentration, the HLA-B*0702 specific staining was calculated as the percentage of staining obtained with 100 μM of the reference peptide CMV265-274 (R10V; […], SEQ ID NO: 9). The relative affinity (RA) was determined as: RA=(Concentration of each peptide that induces 20% of HLA-B*0702-expression/Concentration of the reference peptide that induces 20% of HLA-B*0702 expression).
# RMA-B7 targets = test: Lysis of RMA-B7 targets loaded with decreasing peptide concentrations by murine CTL; format: cell-based; conditions: CTL from mice immunized with TERT444A1, restimulated in vitro with native TERT444, read-out: Half maximal lysis of peptide loaded targets
# Protocol: as §1, §2
# [4] = test system: COS-7 cells transfected with HLA-B*0702 and TERT; test: Peptide processing assay on COS-7 transfected cells (TNFα secretion by murine CTL); format: cell-based, simian; conditions: COS-7 cells transfected with HLA-B*0702 and/or TERT
# Protocol: Peptide Processing Assay on COS-7 Transfected Cells. 2.2×10^4 simian COS-7 cells were plated in flat-bottomed 96-well plates in DMEM+10% FCS, in triplicate for each condition. Eighteen hours later, cells were transfected with 100 ng of each DNA plasmid with DEAE Dextran. After 4 hours, PBS+10% DMSO was added for 2 minutes. Transfected COS cells were incubated in DMEM+10% FCS during 40 hours and then used to stimulate murine CTL in a TNFα secretion assay.
# TNFα Secretion Assay. Transfected COS-7 cells at day 4 were suspended in […] of RPMI+10% FCS and used as stimulating cells. 5×10^4 murine T cells were then added in 50 μl RPMI 10% FCS and incubated for 6 hours. Each condition was tested in triplicate. 50 μl of the supernatant was collected to measure TNFα. Standard dilutions were prepared in 50 μl with final doses of TNFα ranging from 104 to 0 pg/ml. On both the supernatants and the standard dilutions, 3×10^4 TNFα sensitive WEHI-164c13 cells in 50 μl were added. They were incubated for 16 h at 37° C. Inhibition of cell proliferation was evaluated by the MTT colorimetric method (Espevik and Nissen-Meyer, 1986).
# T2-B7 cells = test: IFNγ intracellular staining of human CTL stimulated with peptide-loaded T2-B7 cells; format: cell-based; conditions: donor D5609, 4 pools; T2-B7 cells loaded with TERT444 or TERT444A1
# Protocol: (§4) Generation of CTL from human PBMC. PBMC were collected by leukapheresis from healthy HLA-B*0702 volunteers. Dendritic cells (DC) were produced from adherent cells cultured for seven days (2×10^6 cells/ml) in the presence of 500 IU/ml GM-CSF and 500 IU/ml IL-4 (R&D Systems, Minneapolis, Minn.) in complete medium (RPMI-1640 supplemented with 10% heat inactivated human AB serum, […] L-Glutamine and antibiotics). On day seven, DC were pulsed with 10 μM peptides for 2 hrs; maturation agents Poly I:C (Sigma, Oakville, Canada) at 100 ng/ml and anti-CD40 mAb (clone G28-5, ATCC, Manassas, Va.) at 2 μg/ml were added in the culture and DCs were incubated at 37° C. overnight or up to 48 hours. Mature DC were then irradiated (3500 rads). CD8+ cells were purified by positive selection with CD8 MicroBeads (Miltenyi Biotec, Auburn, Calif.) according to the manufacturer's instructions. 2×10^5 CD8^+ cells+6×10^4 CD8^− cells were stimulated with 2×10^4 peptide pulsed DC in complete culture medium supplemented with 1000 IU/ml IL-6 and 5 IU/ml IL-12 (R&D Systems, Minneapolis, Minn.) in round-bottomed 96 well plates. From day seven, cultures were weekly restimulated with peptide-loaded DC in the presence of 20 IU/ml IL-2 (Proleukin, Chiron Corp., Emeryville, Calif.) and 10 ng/ml IL-7 (R&D Systems, Minneapolis, Minn.). […]
# T2-B7 targets = test: Generation of CTL from human PBMC of healthy donors, cytotoxicity against peptide-loaded T2-B7 targets; format: cell-based; conditions: one responding donor
# Protocol: as §4, with “plates.” for “plates. From day seven, cultures were weekly restimulated with peptide-loaded DC in the presence of 20 IU/ml IL-2 (Proleukin, Chiron Corp., Emeryville, Calif.) and 10 ng/ml IL-7 (R&D Systems, Minneapolis, Minn.).”
# (§5) Cytotoxic assay. […] Percentage of specific lysis was determined as: % Lysis=(Experimental Release−Spontaneous Release)/(Maximal Release−Spontaneous Release)×100.
# [5] = test system: SK-MES-1, HBL-100, SW-480 and HSS human tumor cell lines; test: Cytotoxicity of peptide-induced human CTL against human tumor cell lines; format: cell-based; conditions: one responding donor
# Protocol: Cells. HLA-B*0702 transfected murine RMA-B7 and human T2-B7 cells were previously described (Rohrlich et al., 2003). COS-7 and WEHI-164 clone 13 cells were provided by F. Jotereau (INSERM 463, Nantes, France). The HLA-B*0702 positive SK-MES-1 (lung cancer), HBL-100 (breast cancer), and the HLA-B*0702 negative SW-480 (colon cancer) and HSS (myeloma) cell lines were used as targets of human CTL. All cell lines were grown in FCS 10% supplemented RPMI1640 culture medium.
# Generation of CTL from human PBMC. PBMC were collected by leukapheresis from healthy HLA-B*0702 volunteers. Dendritic cells (DC) were produced from adherent cells cultured for seven days (2×10^6 cells/ml) in the presence of 500 IU/ml GM-CSF and 500 IU/ml IL-4 (R&D Systems, Minneapolis, Minn.) in complete medium (RPMI-1640 supplemented with 10% heat inactivated human AB serum, […] L-Glutamine and antibiotics). On day seven, DC were pulsed with 10 μM peptides for 2 hrs; maturation agents Poly I:C (Sigma, Oakville, Canada) at 100 ng/ml and anti-CD40 mAb (clone G28-5, ATCC, Manassas, Va.) at 2 μg/ml were added in the culture and DCs were incubated at 37° C. overnight or up to 48 hours. Mature DC were then irradiated (3500 rads). […]
# as §5
Sequence,Immunogenicity [1],Corresponding native peptide cross-reconnaissance [2],Immunogenicity [3],RA (HLA-B*0702),Immunogenicity: specific CTL immune response (in words) [2],Affinity for HLA-B*0702 (in words) (HLA-B*0702),other results
APKHSDCLA (Her-2/neu246A1 optimized peptide derived from the cryptic peptide of SEQ ID NO4) [Her2/neu246A1],+,+,+,,,,
APRSPLAPL (Her-2/neu1069L9 optimized peptide derived from the cryptic peptide of SEQ ID NO2) [Her2/neu1069L9],+,+,+,++ (++ = RA < 1),,,
DPRRLVQLL [TERT444],,,,,Only the high affinity TERT4 was immunogenic; also recorded: not immunogenic,low affinity,"EC50 (RMA-B7 targets): 5.5 nM; RA (relative affinity for HLA-B*0702) (HLA-B*0702; T2-B7 cells, 16 hours 37° C., ratio of concentrations inducing 20% HLA-B*0702 expression vs reference peptide CMV265-274): >10"
APRRLVQLL [TERT444A1],+,+,+,+ (+ = 1 < RA < 10),induced an immune response in the majority of vaccinated mice,strong affinity,Recognition of endogenous TERT by peptide-induced murine CTL [4]: recognized COS-7 cells transfected with both HLA-B*0702 and TERT but not COS-7 cells transfected with either HLA-B*0702 or TERT; Intracellular IFNg production by human CTL (T2-B7 cells): IFNg producing CTL were detected in pools 2 and 4
APKANKEIL (Her-2/neu760A1 optimized peptide derived from the cryptic peptide of SEQ ID NO3) [Her2/neu760A1],+,+,+,,,,
APRCRAVRSL [TERT4],,,,,,,Cytotoxicity of human CTL against peptide-loaded T2-B7 targets (T2-B7 targets): killed T2-B7 targets presenting TERT4 but not T2-B7 cells presenting the irrelevant Nef peptide; Cytotoxicity of human CTL against human tumor cell lines [5]: killed the HLA-B*0702 TERT+SK-MES-1 and HBL-100 but not the HLA-B*0702-TERT+SW-480 and HSS human tumor cell lines

# From US20170202936A1, “Identification, Optimization And Use Of Cryptic HLA-B7 Epitopes For Immunotherapy” (VAXON BIOTECH, priority 2006, published 2017)
